In the NIST ThermoML archive (doi:10.1016/j.jct.2008.08.011):
± gives the expanded uncertainty stated by the source.

Assay: osmotic coefficient (dimensionless); mn = molality of the nth substance listed, in mol/kg
Conditions: 101 kPa, Liquid, Knauer K-7000 vapour pressure osmometer

## CCCCn1cc[n+](C)c1.[Cl-] [1-butyl-3-methylimidazolium chloride] + CCO
313.15 K, m1 = 0.1278
  osmotic coefficient: 1.02 ± 0.001
313.15 K, m1 = 0.3749
  osmotic coefficient: 0.887 ± 0.006
313.15 K, m1 = 0.6198
  osmotic coefficient: 0.802 ± 0.01
313.15 K, m1 = 0.7747
  osmotic coefficient: 0.783 ± 0.011
313.15 K, m1 = 1.096
  osmotic coefficient: 0.742 ± 0.013
313.15 K, m1 = 1.437
  osmotic coefficient: 0.717 ± 0.014
313.15 K, m1 = 1.904
  osmotic coefficient: 0.685 ± 0.016
313.15 K, m1 = 2.318
  osmotic coefficient: 0.68 ± 0.016
313.15 K, m1 = 2.688
  osmotic coefficient: 0.657 ± 0.017
313.15 K, m1 = 3.018
  osmotic coefficient: 0.653 ± 0.017
313.15 K, m1 = 3.348
  osmotic coefficient: 0.66 ± 0.017
313.15 K, m1 = 3.521
  osmotic coefficient: 0.66 ± 0.017
333.15 K, m1 = 0.1278
  osmotic coefficient: 0.782 ± 0.011
333.15 K, m1 = 0.3749
  osmotic coefficient: 0.709 ± 0.015
333.15 K, m1 = 0.6198
  osmotic coefficient: 0.666 ± 0.017
333.15 K, m1 = 0.7747
  osmotic coefficient: 0.647 ± 0.018
333.15 K, m1 = 1.096
  osmotic coefficient: 0.63 ± 0.019
333.15 K, m1 = 1.437
  osmotic coefficient: 0.613 ± 0.019
333.15 K, m1 = 1.904
  osmotic coefficient: 0.589 ± 0.021
333.15 K, m1 = 2.318
  osmotic coefficient: 0.576 ± 0.021
333.15 K, m1 = 2.688
  osmotic coefficient: 0.566 ± 0.022
333.15 K, m1 = 3.018
  osmotic coefficient: 0.553 ± 0.022
333.15 K, m1 = 3.348
  osmotic coefficient: 0.55 ± 0.023
333.15 K, m1 = 3.521
  osmotic coefficient: 0.548 ± 0.023

## CCCCCCn1cc[n+](C)c1.[Cl-] [1-hexyl-3-methylimidazolium chloride] + CCO
313.15 K, m1 = 0.0583
  osmotic coefficient: 0.955 ± 0.002
313.15 K, m1 = 0.0975
  osmotic coefficient: 0.92 ± 0.004
313.15 K, m1 = 0.4274
  osmotic coefficient: 0.735 ± 0.013
313.15 K, m1 = 0.6999
  osmotic coefficient: 0.695 ± 0.015
313.15 K, m1 = 1.014
  osmotic coefficient: 0.677 ± 0.016
313.15 K, m1 = 1.354
  osmotic coefficient: 0.662 ± 0.017
313.15 K, m1 = 1.597
  osmotic coefficient: 0.659 ± 0.017
313.15 K, m1 = 1.924
  osmotic coefficient: 0.652 ± 0.017
313.15 K, m1 = 2.211
  osmotic coefficient: 0.648 ± 0.018
313.15 K, m1 = 2.579
  osmotic coefficient: 0.636 ± 0.018
313.15 K, m1 = 2.859
  osmotic coefficient: 0.635 ± 0.018
313.15 K, m1 = 3.272
  osmotic coefficient: 0.628 ± 0.019
333.15 K, m1 = 0.0583
  osmotic coefficient: 0.742 ± 0.013
333.15 K, m1 = 0.0975
  osmotic coefficient: 0.714 ± 0.014
333.15 K, m1 = 0.4274
  osmotic coefficient: 0.608 ± 0.02
333.15 K, m1 = 0.6999
  osmotic coefficient: 0.584 ± 0.021
333.15 K, m1 = 1.014
  osmotic coefficient: 0.568 ± 0.022
333.15 K, m1 = 1.354
  osmotic coefficient: 0.561 ± 0.022
333.15 K, m1 = 1.597
  osmotic coefficient: 0.558 ± 0.022
333.15 K, m1 = 1.924
  osmotic coefficient: 0.551 ± 0.022
333.15 K, m1 = 2.211
  osmotic coefficient: 0.553 ± 0.022
333.15 K, m1 = 2.579
  osmotic coefficient: 0.544 ± 0.023
333.15 K, m1 = 2.859
  osmotic coefficient: 0.544 ± 0.023
333.15 K, m1 = 3.272
  osmotic coefficient: 0.535 ± 0.023

## CCn1cc[n+](C)c1.[Cl-] [1-ethyl-3-methylimidazolium chloride] + O
313.15 K, m1 = 0.1847
  osmotic coefficient: 0.97 ± 0.002
313.15 K, m1 = 0.3033
  osmotic coefficient: 0.949 ± 0.003
313.15 K, m1 = 0.3896
  osmotic coefficient: 0.941 ± 0.003
313.15 K, m1 = 0.5094
  osmotic coefficient: 0.923 ± 0.004
313.15 K, m1 = 0.7105
  osmotic coefficient: 0.895 ± 0.005
313.15 K, m1 = 1.047
  osmotic coefficient: 0.861 ± 0.007
313.15 K, m1 = 1.294
  osmotic coefficient: 0.842 ± 0.008
313.15 K, m1 = 1.678
  osmotic coefficient: 0.835 ± 0.008
313.15 K, m1 = 2.113
  osmotic coefficient: 0.831 ± 0.008
313.15 K, m1 = 2.49
  osmotic coefficient: 0.829 ± 0.009
313.15 K, m1 = 2.947
  osmotic coefficient: 0.844 ± 0.008
313.15 K, m1 = 3.237
  osmotic coefficient: 0.852 ± 0.007
313.15 K, m1 = 3.722
  osmotic coefficient: 0.885 ± 0.006
313.15 K, m1 = 4.113
  osmotic coefficient: 0.921 ± 0.004
333.15 K, m1 = 0.1847
  osmotic coefficient: 0.936 ± 0.003
333.15 K, m1 = 0.3033
  osmotic coefficient: 0.918 ± 0.004
333.15 K, m1 = 0.3896
  osmotic coefficient: 0.896 ± 0.005
333.15 K, m1 = 0.5094
  osmotic coefficient: 0.865 ± 0.007
333.15 K, m1 = 0.7105
  osmotic coefficient: 0.847 ± 0.008
333.15 K, m1 = 1.047
  osmotic coefficient: 0.812 ± 0.009
333.15 K, m1 = 1.294
  osmotic coefficient: 0.801 ± 0.01
333.15 K, m1 = 1.678
  osmotic coefficient: 0.79 ± 0.011
333.15 K, m1 = 2.113
  osmotic coefficient: 0.784 ± 0.011
333.15 K, m1 = 2.49
  osmotic coefficient: 0.788 ± 0.011
333.15 K, m1 = 2.947
  osmotic coefficient: 0.797 ± 0.01
333.15 K, m1 = 3.237
  osmotic coefficient: 0.809 ± 0.01
333.15 K, m1 = 3.722
  osmotic coefficient: 0.831 ± 0.008
333.15 K, m1 = 4.113
  osmotic coefficient: 0.855 ± 0.007

## CCOS(=O)(=O)[O-].CC[n+]1cccc(C)c1 [1-ethyl-3-methylpyridinium ethylsulfate] + O
313.15 K, m1 = 0.1419
  osmotic coefficient: 0.956 ± 0.002
313.15 K, m1 = 0.2108
  osmotic coefficient: 0.927 ± 0.004
313.15 K, m1 = 0.3168
  osmotic coefficient: 0.897 ± 0.005
313.15 K, m1 = 0.3829
  osmotic coefficient: 0.873 ± 0.006
313.15 K, m1 = 0.5036
  osmotic coefficient: 0.846 ± 0.008
313.15 K, m1 = 0.6837
  osmotic coefficient: 0.828 ± 0.009
313.15 K, m1 = 1.034
  osmotic coefficient: 0.813 ± 0.009
313.15 K, m1 = 1.326
  osmotic coefficient: 0.808 ± 0.01
313.15 K, m1 = 1.726
  osmotic coefficient: 0.807 ± 0.01
313.15 K, m1 = 2.11
  osmotic coefficient: 0.813 ± 0.009
313.15 K, m1 = 2.501
  osmotic coefficient: 0.826 ± 0.009
313.15 K, m1 = 2.892
  osmotic coefficient: 0.843 ± 0.008
313.15 K, m1 = 3.303
  osmotic coefficient: 0.859 ± 0.007
333.15 K, m1 = 0.1419
  osmotic coefficient: 0.948 ± 0.003
333.15 K, m1 = 0.2108
  osmotic coefficient: 0.925 ± 0.004
333.15 K, m1 = 0.3168
  osmotic coefficient: 0.887 ± 0.006
333.15 K, m1 = 0.3829
  osmotic coefficient: 0.864 ± 0.007
333.15 K, m1 = 0.5036
  osmotic coefficient: 0.836 ± 0.008
333.15 K, m1 = 0.6837
  osmotic coefficient: 0.811 ± 0.009
333.15 K, m1 = 1.034
  osmotic coefficient: 0.784 ± 0.011
333.15 K, m1 = 1.326
  osmotic coefficient: 0.782 ± 0.011
333.15 K, m1 = 1.726
  osmotic coefficient: 0.782 ± 0.011
333.15 K, m1 = 2.11
  osmotic coefficient: 0.792 ± 0.01
333.15 K, m1 = 2.501
  osmotic coefficient: 0.802 ± 0.01
333.15 K, m1 = 2.892
  osmotic coefficient: 0.809 ± 0.01
333.15 K, m1 = 3.303
  osmotic coefficient: 0.817 ± 0.009
